Here are results for 3 molecules from article PMC6591174, “The beneficial androgenic action of steroidal aromatase inactivators in estrogen-dependent breast cancer after failure of nonsteroidal drugs” (Cell Death & Disease, 2019).

The subject of one test is MCF-7 cells (AR siRNA). The experiment in a line: Proliferation of MCF-7 cells after AR downregulation by siRNA. It counts as cell-based, human. To be noted: 100 nM, 72 h. On the procedure: Cells were cultured and treated as described in the legend of Fig. 2. […] Cell growth is expressed as the ratio of the number of cells in the experimental well to that in control wells (untreated cells). The columns represent the mean of three experiments, each with five replicates; bars, SEM. *P ≤ 0.05, **P ≤ 0.01 vs. control
AR siRNA and its control siRNA used in this study were described by Wu et al.. The sequence of the AR siRNA used was 5′-[…]-3′ and a nonspecific siRNA duplex was used as a negative control. Growing cells were switched to PRF for 24 h and then switched to 10% PRF–CT medium containing 1 nM E2 for 48 h. MCF-7 cells were trypsinized and transfected in suspension with 2.5 μg siRNA (siAR or scrambled siRNA) or pcDNA3.1-AR in six-well plates, using Lipofectamine 3000 (Invitrogen) in OPTI-MEM medium (Gibco), following the manufacturer’s instructions.

Test [1] relates to DMBA-induced mammary carcinoma. Description: DMBA-induced mammary carcinoma, topical treatment. It counts as in vivo, female Sprague-Dawley rats. To be noted: cream 2.5% topically twice daily; for tumor growth: 4 weeks, ovariectomized rats given E2 1 μg/rat daily; for average tumor number after 28 days of treatment: 1.2 ± 0.15 at the beginning, control 4.3 ± 1.2. How it is done:
Fig. 8 The effects of sterols on the DMBA-induced mammary carcinoma in rats. At an age of 50–54 days, female Sprague-Dawley rats were dosed intragastrically with 20 mg DMBA. when at least one tumor measuring 1 cm in diameter was found, the rats were ovariectomized and given intramuscular 1 μg/rat E2 daily. Animals were selected for experiments when at least one tumor per rat had reached a diameter of 1.5 cm. The skin covering the tumor was shaved and animals were divided into four groups. […] Untreated tumors served as controls. a Representative images of the tumors. b Tumor growth curve. c Average number of tumor nodules before and after treatment.The data represent six sets of independent experiments and are shown as the means ± SD. *P < 0.05, **P ≤ 0.01 vs. control group
At an age of 50–54 days, female Sprague-Dawley rats were dosed intragastrically with 20 mg DMBA (Sigma Chemical Co.) dissolved in peanut oil (1 ml/rat). Starting at 40 days after DMBA treatment, animals were examined weekly by palpation; when at least one tumor measuring 1 cm in diameter was found, the rats were ovariectomized using ether anesthesia and were given E2 (1 μg/rat) by daily intramuscular injection. Animals were selected for experiments when at least one tumor per rat had reached a diameter of 1.5 cm. Tumors were measured with calipers once a week, and their volume was calculated according to the following formula: volume = length × (width)^2 × 0.5. Rats were then divided into four groups of six animals each. […] All creams were applied for 4 weeks. […] Tumor growth in the control and treated groups was expressed as a value relative to the initial tumor volume, measured on the 1st day of treatment and taken as 1. At the beginning and end of the treatment period, the number of tumor nodules was counted.

The test system of test [2] is CCND1 promoter in MCF-7 cells. Description: ChIP-qPCR on the CCND1 promoter. It counts as cell-based, human. To be noted: 10^-7 M, 2 h. How it is done:
Fig. 7 The effect of activated AR on CCND1 expression by changing histone modifications of its promoter. The experimental protocol was as described in “Materials and methods”. a and b The expression of the cyclin D1 protein. Blots were also probed for tubulin (bottom) to verify equal amounts of protein loaded in each lane. The densitometric evaluation is calculated by ImageJ. c The abundance of cyclin D1 mRNA has been detected by real-time reverse transcription-PCR, as described in “Materials and methods”. d–h MCF-7 cells were grown in 10 cm dishes. Confluent cultures (80%) were shifted to PRF for 24 h and then treated with indicated compounds at a concentration of 10^−7 M or left untreated in PRF-CT for 2 h. ChIPs were carried out on serum starved MCF-7 cells as described in “Materials and methods”. Cells were lysed and proteins were precipitated using antibodies against AR (d), H3K4me3 (e), H3K9me3 (f), H3K9ac (g), H3K27ac (h) or rabbit IgG (2 μg/sample each). In control samples (Ig), normal rabbit IgG was used instead of the primary antibodies as control of antibody specificity. Inputs DNA were amplified as loading controls. Five regions of CCND1 promoter were examined by quantitative PCR analysis. The region containing the ARE site was detected by PCR with specific primers (p1-ARE) for antibodies of AR and H3K4me3. Specific primers P4 and p5 were used to investigate the changes in methylation or acetylation of H3K9.
MCF-7 cells were grown in 10 cm dishes. Confluent cultures (80%) were shifted to PRF for 24 h and then treated with various drugs at a concentration of 10^–7 M (as shown in Fig. 8) or left untreated in 5% PRF-CT for 2 h. Following treatment, ChIP assay was performed as described by Morelli et al. and using a simple Chip plus Sonication Chromatin IP kit (Cell Signaling Technology, #56383), following the manufacturer’s protocol. The cells were sonicated 10 times for 10 s at 20% of maximal power (Fisher Sonic Dismembrator) and then treated according to the protocol. Anti-AR (Cat. No. 5153), anti-H3K4me3 (Cat. No. 9751), anti-H3K9me3 (Cat. No. 13969), anti-H3K9ace (Cat. No. 9649), anti-H3K27ace (Cat. No. 8173) or rabbit IgG (Cat. No. 3900) of Cell Signaling Technology antibody were used to precipitate chromatin fragments from cell extracts. We used real-time quantitative PCR (SYBR green) to amplify the DNA fragment in the antibody precipitated DNA and the unprecipitated input DNA to calculate ΔCT values. A specific primer pair was used to amplify 134 bp of the ARE-containing cyclin D1 promoter fragment. For the histone modification antibody, another four pairs of prime locating at 1000 to −2000 bp region from the transcription initiation site of CCND1 were used besides the prime containing ARE. The RQ values (RQ = 2^–ΔCT) are presented and reflect the precipitated DNA as a percentage of the input DNA.
(Quantitative PCR measures a nucleic acid by following its amplification.)

Some results are limits rather than exact numbers.

With `C[C@]12CC[C@H]3[C@@H](CCC4=C(O)C(=O)CC[C@@]43C)[C@@H]1CC[C@@H]2O` [4-OHT, 4-hydroxytestosterone], the “inhibition of proliferation after AR downregulation” value (shortened to “inhibition of proliferation”) with MCF-7 cells (AR siRNA) is listed as “identical results”. Moreover, in test [1], the tumor growth result is recorded as “shrinkage of the tumor” and the “average tumor number after 28 days of treatment” value (“average tumor number” for short) was determined as 1.6 ± 0.4 tumors per rat. Besides, the “appearance of new tumors at end of treatment” value in test [1] (28 days, vs control) is “almost did not develop new tumors”. In test [2], the “AR binding to ARE site of CCND1-promoter” value is reported as “almost as strong as that of DHT”; the “H3K4me3 at CCND1 promoter, relative to untreated control cells” value is reported as < 20%; the “H3K9ac at CCND1 promoter” value was “decreased”; the “H3K9me3 at CCND1 promoter” value is listed as “increased”. Besides, in test [2], the “H3K27ac at CCND1 promoter” value is on record as “unchanged”.

On to `C=C1C[C@H]2[C@@H]3CC[C@H](O)[C@@]3(C)CC[C@@H]2[C@@]2(C)C=CC(=O)C=C12` [17-HEXE, 17-hydroexemestane], for which, in the test with MCF-7 cells (AR siRNA), the “inhibition of proliferation” value is given as “identical results”. For the same molecule, in test [1], the tumor growth result is recorded as “growth arrest” and the “average tumor number” value was found to be 2.85 ± 0.68 tumors per rat. Moreover, in test [2], the “AR binding to ARE site of CCND1-promoter” value was “almost as strong as that of DHT”; the “H3K4me3 at CCND1 promoter, relative to untreated control cells” value is < 20%; the “H3K9ac at CCND1 promoter” value was “decreased”; the “H3K9me3 at CCND1 promoter” value was “increased”. In addition, the “H3K27ac at CCND1 promoter” value in test [2] is on record as “unchanged”.

With `C[C@]12CCC(=O)C[C@@H]1CC[C@@H]1[C@@H]2CC[C@]2(C)[C@@H](O)CC[C@@H]12` [DHT, dihydrotestosterone], in the test with MCF-7 cells (AR siRNA), the “inhibition of proliferation” value is reported as “AR downregulation diminishes the ability”. Also, in test [1], the tumor growth entry was “growth arrest” and the “average tumor number” value was found to be 2.25 ± 0.8 tumors per rat. In test [2], the “AR binding to ARE site of CCND1-promoter” value is recorded as “strong increase”.
